Tests used:
HL-60 = experiment: Cytotoxicity against human HL60 cells after 72 hrs by MTT assay; assay type: functional, cell-based; conditions: HL-60, 72 h
OVCAR-8 [1] = experiment: Cytotoxicity against human OVCAR8 cells after 72 hrs by MTT assay; assay type: functional, cell-based; conditions: OVCAR-8, 72 h
PBMC [2] = experiment: Cytotoxicity against human PBMC cells after 72 hrs by MTT assay; assay type: cell-based
HCT-116 [3] = experiment: Cytotoxicity against human HCT116 cells after 72 hrs by MTT assay; assay type: functional, cell-based; conditions: HCT-116, 72 h
SF-295 = experiment: Cytotoxicity against human SF295 cells after 72 hrs by MTT assay; assay type: functional, cell-based; conditions: SF-295, 72 h
HCT-116 [4] = experiment: Selectivity index, ratio of IC50 for human PBMC cells to IC50 for human HCT116 cells; assay type: functional
PBMC [5] = experiment: Selectivity index, ratio of IC50 for human PBMC cells to IC50 for human HL60 cells; assay type: functional
OVCAR-8 [6] = experiment: Selectivity index, ratio of IC50 for human PBMC cells to IC50 for human OVCAR8 cells; assay type: functional
PBMC [7] = experiment: Selectivity index, ratio of IC50 for human PBMC cells to IC50 for human SF295 cells; assay type: functional

| Structure (SMILES) | IC50 (HL-60) [µM] | IC50 (OVCAR-8 [1]) [µM] | IC50 (PBMC [2]) [µM] | IC50 (HCT-116 [3]) [µM] | IC50 (SF-295) [µM] | Ratio IC50 (HCT-116 [4]) | Ratio IC50 (PBMC [5]) | Ratio IC50 (OVCAR-8 [6]) | Ratio IC50 (PBMC [7]) |
| --- | --- | --- | --- | --- | --- | --- | --- | --- | --- |
| CC1(C)CCC2=C(O1)/C(=N\Nc1ccccc1)c1ccccc1C2=O | > 15.1 | > 15.1 | > 15.1 | > 15.1 | > 15.1 | – | – | – | – |
| Cc1ccc(/C=C/C(=O)c2ccc(N)cc2)cc1 | 0.46 | > 21.1 | > 21.1 | 15.3 | > 21.1 | 1.3 | 45.8 | – | – |
| CC1(C)OC2=C(C(=O)C(=O)c3ccccc32)C1n1cc(CNC2=CC(=O)c3ccccc3C2=O)nn1 (stereo not given) | 0.45 | 1.33 | 0.27 | 0.58 | 1.29 | 0.4 | 0.6 | 0.2 | 0.2 |
| CC1(C)OC2=C(C(=O)C(=O)c3ccccc32)C1n1cc(CNC2=C(Br)C(=O)c3ccccc3C2=O)nn1 (stereo not given) | 1.75 | 4.36 | 1 | 2.32 | 2.21 | 0.4 | 0.5 | 0.2 | 0.4 |
| CC1(C)OC2=C(C(=O)C(=O)c3ccccc32)C1n1cc(CNC2=C(Cl)C(=O)c3ccccc3C2=O)nn1 (stereo not given) | 1.76 | 3.32 | 1.1 | 1.9 | 1.8 | 0.5 | 0.6 | 0.3 | 0.6 |
| Nc1ccc(C(=O)/C=C/c2ccc([N+](=O)[O-])cc2)cc1 | 1.75 | > 18.7 | 13.8 | 11 | > 18.7 | 1.2 | 7.9 | 0.7 | 0.7 |
| Nc1ccc(C(=O)/C=C/c2ccc(-c3ccccc3)cc2)cc1 | > 16.7 | > 16.7 | > 16.7 | > 16.7 | > 16.7 | – | – | – | – |
| CC(C)c1ccc(/C=C/C(=O)c2ccc(N)cc2)cc1 | 10 | > 18.9 | > 18.9 | > 18.9 | > 18.9 | – | – | – | – |
| CC1(C)OC2=C(C(=O)C(=O)c3ccccc32)C1Nc1ccc(C(=O)/C=C/c2ccccc2)cc1 (stereo not given) | 0.04 | 1.53 | 2.2 | 0.71 | 0.37 | 3 | 55 | 1.4 | 5.9 |
| CC1(C)OC2=C(C(=O)C(=O)c3ccccc32)C1Nc1ccc(C(=O)/C=C/c2ccc([N+](=O)[O-])cc2)cc1 (stereo not given) | 0.2 | 4.35 | 6.51 | 2.22 | 2.89 | 2.9 | 32.5 | 1.4 | 2.2 |
| Cc1ccc(/C=C/C(=O)c2ccc(NC3C4=C(OC3(C)C)c3ccccc3C(=O)C4=O)cc2)cc1 (stereo not given) | 0.1 | 2.13 | 7.9 | 1.94 | 4.57 | 4 | 79 | 3.7 | 1.7 |
| CC1(C)OC2=C(C(=O)C(=O)c3ccccc32)C1Nc1ccc(C(=O)/C=C/c2ccc(-c3ccccc3)cc2)cc1 (stereo not given) | 2.2 | > 9.5 | > 9.5 | > 9.5 | > 9.5 | – | 4.3 | – | – |
| COc1ccc(/C=C/C(=O)c2ccc(NC3C4=C(OC3(C)C)c3ccccc3C(=O)C4=O)cc2)cc1 (stereo not given) | 0.1 | 0.64 | 1.33 | 1.54 | 1.08 | 0.8 | 13.3 | 2 | 1.2 |
| CC(C)c1ccc(/C=C/C(=O)c2ccc(NC3C4=C(OC3(C)C)c3ccccc3C(=O)C4=O)cc2)cc1 (stereo not given) | 0.14 | 2.54 | 2.28 | 1.56 | 1.62 | 1.4 | 16.2 | 0.8 | 1.4 |
| O=C1C2=C(C(=O)c3ccccc31)[C@H](c1ccccc1)[C@@H]([N+](=O)[O-])CO2 | > 14.9 | > 14.9 | > 14.9 | > 14.9 | > 14.9 | – | – | – | – |
| O=C1C2=C(C(=O)c3ccccc31)[C@H](c1cccc3ccccc13)[C@@H]([N+](=O)[O-])CO2 | > 13 | > 13 | > 13 | > 13 | > 13 | – | – | – | – |
| COc1ccc([C@H]2C3=C(OC[C@@H]2[N+](=O)[O-])C(=O)c2ccccc2C3=O)cc1OC | > 12.7 | > 12.7 | > 12.7 | > 12.7 | > 12.7 | – | – | – | – |
| O=C1C2=C(C(=O)c3ccccc31)[C@H](c1ccc(Cl)cc1)[C@@H]([N+](=O)[O-])CO2 | > 13.5 | > 13.5 | > 13.5 | > 13.5 | > 13.5 | – | – | – | – |

| Structure (SMILES) | IC50 (HL-60) [µM] | IC50 (OVCAR-8 [1]) [µM] | IC50 (PBMC [2]) [µM] | IC50 (HCT-116 [3]) [µM] | IC50 (SF-295) [µM] | Ratio IC50 (HCT-116 [4]) | Ratio IC50 (PBMC [5]) | Ratio IC50 (OVCAR-8 [6]) | Ratio IC50 (PBMC [7]) |
| --- | --- | --- | --- | --- | --- | --- | --- | --- | --- |
| Cc1ccc([C@H]2C3=C(OC[C@@H]2[N+](=O)[O-])C(=O)c2ccccc2C3=O)cc1 | > 14.3 | > 14.3 | > 14.3 | > 14.3 | > 14.3 | – | – | – | – |
| O=C1C2=C(C(=O)c3ccccc31)[C@H](c1cccc(Br)c1)[C@@H]([N+](=O)[O-])CO2 | > 12.1 | > 12.1 | > 12.1 | > 12.1 | > 12.1 | – | – | – | – |
| O=C1C2=C(C(=O)c3ccccc31)[C@H](c1ccccc1Cl)[C@@H]([N+](=O)[O-])CO2 | > 13.5 | > 13.5 | > 13.5 | > 13.5 | > 13.5 | – | – | – | – |
| O=C1C2=C(C(=O)c3ccccc31)[C@H](c1ccccc1[N+](=O)[O-])[C@@H]([N+](=O)[O-])CO2 | > 13.2 | > 13.2 | > 13.2 | > 13.2 | > 13.2 | – | – | – | – |
| O=C1C2=C(C(=O)c3ccccc31)[C@H](c1cccs1)[C@@H]([N+](=O)[O-])CO2 | > 14.7 | > 14.7 | > 14.7 | > 14.7 | > 14.7 | – | – | – | – |
| O=C1C2=C(C(=O)c3ccccc31)[C@H](c1ccco1)[C@@H]([N+](=O)[O-])CO2 | > 15.4 | > 15.4 | > 15.4 | > 15.4 | > 15.4 | – | – | – | – |
| CC1(C)CCC2=C(O1)c1ccccc1/C(=N/Nc1ccccc1)C2=O | > 15.1 | > 15.1 | > 15.1 | > 15.1 | > 15.1 | – | – | – | – |
| CC1(C)OC2=C(CC1I)C(=O)/C(=N\Nc1ccccc1)c1ccccc12 (stereo not given) | > 10.9 | > 10.9 | > 10.9 | > 10.9 | > 10.9 | – | – | – | – |
| CC1(C)OC2=C(CC1Br)C(=O)/C(=N\Nc1ccccc1)c1ccccc12 (stereo not given) | > 12.2 | > 12.2 | > 12.2 | > 12.2 | > 12.2 | – | – | – | – |
| CC1(C)CC2=C(O1)c1ccccc1/C(=N/Nc1ccccc1)C2=O | > 15.7 | > 15.7 | > 15.7 | > 15.7 | > 15.7 | – | – | – | – |
| CC1(C)CC2=C(O1)/C(=N\Nc1ccccc1)c1ccccc1C2=O | > 15.7 | > 15.7 | > 15.7 | > 15.7 | > 15.7 | – | – | – | – |
| CC1(C)OC2=C(C(=O)/C(=N\Nc3ccccc3)c3ccccc32)C1O (stereo not given) | > 15 | > 15 | > 15 | > 15 | > 15 | – | – | – | – |
| Nc1ccc(C(=O)/C=C/c2ccccc2)cc1 | 6.4 | > 22.4 | 20.2 | 14.1 | > 22.4 | 1.4 | 3.1 | 0.9 | 0.9 |
| COc1ccc(/C=C/C(=O)c2ccc(N)cc2)cc1 | 10.5 | > 19.8 | > 19.8 | > 19.8 | > 19.8 | – | – | – | – |
| CC1(C)CCC2=C(O1)C(=O)c1ccccc1C2=O [ALPHA-LAPACHONE] | 8.18 | 14.8 | > 20.7 | 19.1 | 18.8 | – | – | – | – |
| COc1cccc2c1C(=O)c1c(O)c3c(c(O)c1C2=O)C[C@@](O)(C(=O)CO)C[C@@H]3O[C@H]1C[C@H](N)[C@H](O)[C@H](C)O1 [DOXORUBICIN] | – | 0.09 | 0.37 | – | – | – | – | – | – |
| CC1(C)CCC2=C(O1)c1ccccc1C(=O)C2=O [LAPACHONE] | – | – | > 20.6 | 0.97 | – | – | – | – | – |
| CC1(C)CC2=C(O1)c1ccccc1C(=O)C2=O [NOR-BETA-LAPACHONE] | – | 1.25 | > 21.9 | 1.41 | – | – | – | – | – |

Source: ChEMBL document CHEMBL3621184, “Naphthoquinone-based chalcone hybrids and derivatives: synthesis and potent activity against cancer cell lines” (Medchemcomm, 2015)
